For the experiment, the target named is herpes simplex virus type 2 (HSV-2) thymidine kinase (Human herpesvirus 2, UniProt P89446). Briefly: Inhibition of herpes simplex virus type 2 (HSV-2) thymidine kinase in vitro (3H-thymidine phosphorylation). It counts as biochemical. As to conditions: thymidine kinase extract, 0.3 μM 3H-thymidine, 5 mM ATP, pH 8, 37° C., 30 minutes. Here is the method: In this test, the assay mixture contains 50 mM Tris-HCl, pH 8, 5 mM magnesium chloride, 5 mM ATP, 0.3 μM ^3 H-thymidine (50 Ci/mmol), suitably diluted thymidine kinase extract and various concentrations of compounds of formula I or tautomers in a total volume of 100 μl. Assays are incubated at 37° C. for 30 minutes and the reaction is terminated by immersion in a boiling water bath for 2 minutes. 85 μl aliquots from each assay are then dried on cellulose paper discs and the unphosphorylated ^3 H-thymidine is removed by washing in 4 mM ammonium formate. The radioactivity remaining bound to the discs is then measured by scintillation spectrophotometry. The degree of inhibition at each concentration of compound of formula I is expressed as a percentage of the control reaction (100%) after substracting a measured blank value which represents the amount of radioactivity bound to the disc from a reaction containing heat inactivated enzymes. The IC50 value, namely the concentration of compound of formula I or tautomer thereof which inhibits enzyme activity by 50%, is then calculated. The results obtained with representative compounds of formula I are compiled in the following Table: […]
Chain of herpes simplex virus type 2 (HSV-2) thymidine kinase (P89446 whole entry): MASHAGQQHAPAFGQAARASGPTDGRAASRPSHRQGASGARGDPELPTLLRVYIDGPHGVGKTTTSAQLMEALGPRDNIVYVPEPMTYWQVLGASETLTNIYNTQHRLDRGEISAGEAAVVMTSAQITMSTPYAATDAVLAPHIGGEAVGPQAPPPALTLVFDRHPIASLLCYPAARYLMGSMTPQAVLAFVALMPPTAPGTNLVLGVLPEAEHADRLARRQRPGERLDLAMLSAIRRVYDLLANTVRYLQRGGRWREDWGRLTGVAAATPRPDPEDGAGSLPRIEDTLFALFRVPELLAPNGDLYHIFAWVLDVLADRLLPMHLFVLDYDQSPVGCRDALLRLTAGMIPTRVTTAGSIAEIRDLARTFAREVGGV

The source of these data is patent publication US4886785A, “Pyrimidine derivatives, pharmaceutical compositions and method of using same” (Hoffmann-La Roche Inc., priority 1986, dated 1989).

Molecules are shown by their SMILES.

Consider `CCc1cn([C@H]2C[C@H](O)[C@@H](CNCc3c(Cl)cccc3Cl)O2)c(=O)[nH]c1=O` [Example 4c, 5'-(2,6-dichlorobenzylamino)-2',5'-dideoxy-5-ethyluridine], for which the midpoint of inhibition, the IC50, lay at 80 nM.
As to `CCc1cn([C@H]2C[C@H](O)[C@@H](CNCc3cccc(Cl)c3Cl)O2)c(=O)[nH]c1=O` [Example 4b, 5'-(2,3-dichlorobenzylamino)-2',5'-dideoxy-5-ethyluridine], the IC50 (commonly the concentration that inhibits the measured activity by half) is 60 nM.
`CCc1cn([C@H]2C[C@H](O)[C@@H](CNCCc3c(Cl)cccc3Cl)O2)c(=O)[nH]c1=O` [Example 3b, 5'-[2-(2,6-dichlorophenyl)ethylamino]-2',5'-dideoxy-5-ethyluridine]: the IC50 was 90 nM. Compared with the last molecule, the IC50 is about 1.5-fold higher.
